Our source for the pD2 values is ChEMBL document CHEMBL1121413, “Synthesis, beta-adrenergic activity, and platelet antiaggregatory activity of a positional isomer of trimetoquinol: 1-(2',4',5'-trimethoxybenzyl)-6,7-dihydroxy-1,2,3,4,-tetrahydroisoquinoline” (J Med Chem, 1980).

Assay [1] deals with T1, Adrenergic receptor beta (Homo sapiens) (UniProt P08588+P07550+P13945). Particulars: Cavia porcellus.
Description: Tested for potent Beta adrenergic receptor action in the atria of guinea pig
Assay [2] deals with T1, Adrenergic receptor beta (Homo sapiens). Particulars: Cavia porcellus. This is another data set of the same source.

For `COc1cc(CC2NCCc3cc(O)c(O)cc32)cc(OC)c1OC` (configuration not stated), the pD2 in assay [1] was determined as 8.8; in assay [2] it was 7.8.
